Drawing on ChEMBL document CHEMBL5291721, “A preclinical secondary pharmacology resource illuminates target-adverse drug reaction associations of marketed drugs” (Nat Commun, 2023), this text covers AC50 for 19 compounds.

The target in assay [1] is T1, 5-hydroxytryptamine receptor 1A (Homo sapiens, UniProt P08908).
T1 sequence (P08908 whole entry): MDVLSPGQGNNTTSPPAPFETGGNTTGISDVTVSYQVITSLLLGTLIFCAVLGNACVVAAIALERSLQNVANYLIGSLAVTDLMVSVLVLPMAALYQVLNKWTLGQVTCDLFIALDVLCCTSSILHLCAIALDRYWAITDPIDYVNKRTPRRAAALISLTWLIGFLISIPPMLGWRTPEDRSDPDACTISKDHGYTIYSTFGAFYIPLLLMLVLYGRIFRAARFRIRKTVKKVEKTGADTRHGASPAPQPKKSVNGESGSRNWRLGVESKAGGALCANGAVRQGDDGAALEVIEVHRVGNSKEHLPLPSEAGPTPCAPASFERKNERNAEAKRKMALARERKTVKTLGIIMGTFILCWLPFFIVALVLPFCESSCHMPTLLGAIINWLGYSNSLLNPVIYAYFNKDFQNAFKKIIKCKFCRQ

Assay [2] has as its target T2, Neuropeptide Y receptor type 2 (Homo sapiens, UniProt P49146).
T2 sequence (P49146 whole entry): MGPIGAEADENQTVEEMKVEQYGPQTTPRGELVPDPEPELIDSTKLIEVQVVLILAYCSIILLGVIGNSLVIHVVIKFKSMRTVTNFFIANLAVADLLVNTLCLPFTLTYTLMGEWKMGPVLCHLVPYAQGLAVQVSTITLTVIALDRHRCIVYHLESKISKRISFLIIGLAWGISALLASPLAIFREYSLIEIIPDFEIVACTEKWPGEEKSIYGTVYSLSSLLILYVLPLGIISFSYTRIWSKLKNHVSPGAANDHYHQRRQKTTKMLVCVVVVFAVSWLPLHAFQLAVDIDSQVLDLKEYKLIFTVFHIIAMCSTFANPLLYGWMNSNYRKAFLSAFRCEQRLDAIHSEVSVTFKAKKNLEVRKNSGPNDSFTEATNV

Assay [3] concerns the target T3, Corticotropin-releasing factor receptor 2 (Homo sapiens, UniProt Q13324).
T3 sequence (Q13324 whole entry): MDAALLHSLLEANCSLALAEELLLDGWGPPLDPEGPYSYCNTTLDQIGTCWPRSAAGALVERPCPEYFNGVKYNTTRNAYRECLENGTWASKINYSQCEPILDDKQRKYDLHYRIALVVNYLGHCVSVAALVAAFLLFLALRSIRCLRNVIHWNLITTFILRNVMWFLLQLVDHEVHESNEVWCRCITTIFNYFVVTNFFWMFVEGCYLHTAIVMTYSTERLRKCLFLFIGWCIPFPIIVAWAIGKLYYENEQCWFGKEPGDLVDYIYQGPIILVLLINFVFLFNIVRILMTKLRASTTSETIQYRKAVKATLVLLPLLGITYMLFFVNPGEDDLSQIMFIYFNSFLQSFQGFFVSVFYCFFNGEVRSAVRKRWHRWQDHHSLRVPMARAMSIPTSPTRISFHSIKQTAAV

Assay [4] deals with T4, Corticotropin-releasing factor receptor 1 (Homo sapiens, UniProt P34998).
T4 sequence (P34998 whole entry): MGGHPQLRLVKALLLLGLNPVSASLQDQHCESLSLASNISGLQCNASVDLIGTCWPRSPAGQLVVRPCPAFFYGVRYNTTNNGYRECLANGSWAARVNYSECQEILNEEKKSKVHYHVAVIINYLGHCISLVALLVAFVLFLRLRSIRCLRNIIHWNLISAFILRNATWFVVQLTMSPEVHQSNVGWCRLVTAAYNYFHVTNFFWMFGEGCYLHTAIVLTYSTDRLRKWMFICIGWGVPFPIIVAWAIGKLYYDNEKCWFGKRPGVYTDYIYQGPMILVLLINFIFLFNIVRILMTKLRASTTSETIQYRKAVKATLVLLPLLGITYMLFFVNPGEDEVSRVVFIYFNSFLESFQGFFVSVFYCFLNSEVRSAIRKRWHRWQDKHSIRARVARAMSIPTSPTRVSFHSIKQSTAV

In assay [5] the target is Beta-3 adrenergic receptor (Homo sapiens, UniProt P13945).
In the next assay the target is T5, B1 bradykinin receptor (Homo sapiens, UniProt P46663).
T5 sequence (P46663 whole entry): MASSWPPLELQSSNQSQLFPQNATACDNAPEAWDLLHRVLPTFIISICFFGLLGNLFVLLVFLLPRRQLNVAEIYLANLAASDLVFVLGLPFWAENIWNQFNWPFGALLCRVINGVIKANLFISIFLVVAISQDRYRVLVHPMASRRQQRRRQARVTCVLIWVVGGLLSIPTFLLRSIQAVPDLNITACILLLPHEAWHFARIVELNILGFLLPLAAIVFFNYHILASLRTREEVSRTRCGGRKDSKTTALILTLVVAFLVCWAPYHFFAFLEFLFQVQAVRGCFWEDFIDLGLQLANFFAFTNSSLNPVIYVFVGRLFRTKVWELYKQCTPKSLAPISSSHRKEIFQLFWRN

Assay [6] has as its target T6, Alpha-2A adrenergic receptor (Homo sapiens, UniProt P08913).
T6 sequence (P08913 whole entry): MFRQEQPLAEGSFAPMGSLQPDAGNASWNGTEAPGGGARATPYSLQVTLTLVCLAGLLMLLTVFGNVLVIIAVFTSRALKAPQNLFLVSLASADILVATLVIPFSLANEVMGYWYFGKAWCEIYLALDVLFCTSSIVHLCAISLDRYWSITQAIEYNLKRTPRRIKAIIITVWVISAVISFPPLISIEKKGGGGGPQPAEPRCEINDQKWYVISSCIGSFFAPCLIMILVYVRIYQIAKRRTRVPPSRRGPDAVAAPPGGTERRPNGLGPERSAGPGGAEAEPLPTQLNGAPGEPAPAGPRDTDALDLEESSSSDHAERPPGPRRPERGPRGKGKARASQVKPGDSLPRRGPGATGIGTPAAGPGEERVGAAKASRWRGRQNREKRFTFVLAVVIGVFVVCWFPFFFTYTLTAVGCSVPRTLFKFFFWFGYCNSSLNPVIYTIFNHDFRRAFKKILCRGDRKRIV

A further assay addresses Estrogen receptor beta (Homo sapiens, UniProt Q92731).
The target of the next assay is Histamine H2 receptor (Homo sapiens, UniProt P25021).
The target of assay [7] is Neurotensin receptor type 1 (Homo sapiens, UniProt P30989).
Also: assay procedure not described here.

Beta-3 adrenergic receptor, sequence (P13945 whole entry): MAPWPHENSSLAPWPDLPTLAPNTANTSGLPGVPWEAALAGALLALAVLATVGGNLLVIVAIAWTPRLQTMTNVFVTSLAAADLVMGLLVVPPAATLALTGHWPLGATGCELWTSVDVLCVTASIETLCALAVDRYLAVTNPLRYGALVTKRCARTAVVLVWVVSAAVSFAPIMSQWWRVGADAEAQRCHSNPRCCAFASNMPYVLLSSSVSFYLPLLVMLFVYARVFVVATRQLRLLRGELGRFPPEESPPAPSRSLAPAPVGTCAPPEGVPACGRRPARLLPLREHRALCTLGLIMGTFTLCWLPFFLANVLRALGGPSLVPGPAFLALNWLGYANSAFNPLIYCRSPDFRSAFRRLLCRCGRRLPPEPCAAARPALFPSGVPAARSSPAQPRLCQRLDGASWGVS
Neurotensin receptor type 1, sequence (P30989 whole entry): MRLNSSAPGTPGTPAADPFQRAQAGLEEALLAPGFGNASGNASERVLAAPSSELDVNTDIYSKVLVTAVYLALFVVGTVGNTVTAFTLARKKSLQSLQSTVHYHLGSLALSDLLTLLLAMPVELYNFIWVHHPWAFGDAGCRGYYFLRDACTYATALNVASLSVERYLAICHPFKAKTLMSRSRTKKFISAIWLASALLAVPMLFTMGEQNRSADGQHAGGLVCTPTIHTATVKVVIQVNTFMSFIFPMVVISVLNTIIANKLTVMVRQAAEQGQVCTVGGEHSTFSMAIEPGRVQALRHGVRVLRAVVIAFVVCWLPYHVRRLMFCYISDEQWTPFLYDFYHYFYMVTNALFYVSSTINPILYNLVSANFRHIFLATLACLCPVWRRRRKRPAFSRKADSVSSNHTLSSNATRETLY
Estrogen receptor beta, sequence (Q92731 whole entry): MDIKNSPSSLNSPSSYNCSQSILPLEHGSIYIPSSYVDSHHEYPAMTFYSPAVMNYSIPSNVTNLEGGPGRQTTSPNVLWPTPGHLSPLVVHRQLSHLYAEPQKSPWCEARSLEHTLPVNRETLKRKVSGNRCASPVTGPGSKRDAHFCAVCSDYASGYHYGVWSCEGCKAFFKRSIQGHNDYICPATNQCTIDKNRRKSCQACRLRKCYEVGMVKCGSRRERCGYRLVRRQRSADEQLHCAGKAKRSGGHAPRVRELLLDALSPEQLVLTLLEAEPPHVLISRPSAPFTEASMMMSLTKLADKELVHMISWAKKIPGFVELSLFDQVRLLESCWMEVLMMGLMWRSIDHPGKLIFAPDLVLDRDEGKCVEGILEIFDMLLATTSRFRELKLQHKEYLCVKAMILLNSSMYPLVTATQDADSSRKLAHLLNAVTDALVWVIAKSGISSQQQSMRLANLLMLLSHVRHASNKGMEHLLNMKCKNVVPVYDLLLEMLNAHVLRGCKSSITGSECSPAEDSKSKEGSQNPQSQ
Histamine H2 receptor, sequence (P25021 whole entry): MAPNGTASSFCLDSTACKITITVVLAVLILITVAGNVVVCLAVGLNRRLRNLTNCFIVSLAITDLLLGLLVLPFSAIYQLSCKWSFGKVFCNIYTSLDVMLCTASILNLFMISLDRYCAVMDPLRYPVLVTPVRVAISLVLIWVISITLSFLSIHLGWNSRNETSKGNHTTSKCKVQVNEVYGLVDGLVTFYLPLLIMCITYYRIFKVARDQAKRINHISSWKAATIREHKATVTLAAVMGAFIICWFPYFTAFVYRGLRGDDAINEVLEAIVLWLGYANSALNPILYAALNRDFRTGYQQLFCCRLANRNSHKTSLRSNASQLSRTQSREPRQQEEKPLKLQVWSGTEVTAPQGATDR

Usually AC50 stands for the concentration at which the activity in the assay is half-maximal. A lower AC50 goes with activity at low concentration. In the case of `CC1=C(CC(=O)O)c2cc(F)ccc2/C1=C\c1ccc([S+](C)[O-])cc1` (centres undefined), the AC50 in assay [1] was above 10 µM; in assay [2] it was above 30 µM; in [3] it was above 30 µM; in [4] it was above 30 µM; in assay [5], above 30 µM; at B1 bradykinin receptor, above 30 µM. The AC50 in assay [6] was above 10 µM; on Estrogen receptor beta, above 30 µM; on Histamine H2 receptor it was above 10 µM; in assay [7] it was above 30 µM.
On to `O=C(O[C@H]1C[N+]2(CCCOc3ccccc3)CCC1CC2)C(O)(c1cccs1)c1cccs1` [ACLIDINIUM BROMIDE], for which the AC50 in [1] was above 10 µM; in assay [2], above 30 µM; in assay [3], above 30 µM; in assay [4], above 30 µM; at B1 bradykinin receptor, above 30 µM; in assay [6], 2.27 µM. Besides, the values for the concentration at half-maximal activity (AC50) (at Histamine H2 receptor; in assay [7]) were above 10 µM and above 30 µM, respectively.
`Cc1nnc2n1-c1ccc(Cl)cc1C(c1ccccc1)=NC2` [ALPRAZOLAM]: the AC50 is above 10 µM in assay [1]; above 30 µM in assay [2]; above 30 µM in assay [3]; above 30 µM in [4]; above 30 µM in [5]; above 30 µM at B1 bradykinin receptor. For the same compound, the AC50 in assay [6] was above 10 µM; on Estrogen receptor beta it was above 30 µM; at Histamine H2 receptor, above 10 µM; in assay [7], above 30 µM.
Turning to `CC(NC(C)(C)C)C(=O)c1cccc(Cl)c1` (centres undefined) [BUPROPION], the AC50 is above 10 µM in [1]; above 30 µM in assay [2]; above 30 µM in assay [3]; above 30 µM in assay [4]; above 30 µM in assay [5]; above 30 µM on B1 bradykinin receptor. Also, the AC50 in assay [6] is above 10 µM; at Estrogen receptor beta, above 30 µM; at Histamine H2 receptor, above 10 µM; in [7] it was above 30 µM.
On to `Oc1cc(O)c2c(c1)O[C@H](c1ccc(O)c(O)c1)[C@@H](O)C2` [CIANIDANOL], for which the AC50 is above 10 µM in assay [1]; above 30 µM in assay [2]; above 30 µM in assay [3]; above 30 µM in [4]; above 30 µM in assay [5]; above 30 µM at B1 bradykinin receptor. Moreover, the AC50 in assay [6] was above 10 µM; on Estrogen receptor beta, above 30 µM; on Histamine H2 receptor it was above 10 µM; in assay [7], above 30 µM.
For `O=C1CN=C(c2ccccc2Cl)c2cc([N+](=O)[O-])ccc2N1` [CLONAZEPAM], the half-maximal activity concentration (AC50) in assay [1] was above 10 µM; in assay [2] it was above 30 µM; in assay [3], above 30 µM; in [4], above 30 µM; in assay [5], above 30 µM; on B1 bradykinin receptor, above 30 µM. Also, the AC50 in assay [6] is above 10 µM; on Estrogen receptor beta it was above 30 µM; on Histamine H2 receptor, above 10 µM; in assay [7], above 30 µM.
In the case of `C=C(c1ccccc1OCc1cccc(Cl)c1)n1ccnc1` [CROCONAZOLE], the AC50 in [1] was above 10 µM.
Turning to `CCN(CC)C(C)C(=O)c1ccccc1` (centres undefined) [DIETHYLPROPION], the AC50 in [1] is above 10 µM; in assay [2] it was above 30 µM; in assay [3] it was above 30 µM; in [4], above 30 µM; in assay [5] it was above 30 µM; on B1 bradykinin receptor it was above 30 µM. For the same compound, the AC50 was 4.46 µM in assay [6], above 10 µM on Histamine H2 receptor and above 30 µM in assay [7].
Take `OCCN(CCO)c1nc(N2CCCCC2)c2nc(N(CCO)CCO)nc(N3CCCCC3)c2n1` [DIPYRIDAMOLE]: the AC50 in assay [5] and in assay [7] was above 30 µM in each case.
On to `Cc1ccc(-c2ncc(Cl)cc2-c2ccc(S(C)(=O)=O)cc2)cn1` [ETORICOXIB], for which the AC50 is above 10 µM in [1]; above 30 µM in assay [2]; above 30 µM in [3]; above 30 µM in [4]; above 30 µM in [5]; above 30 µM at B1 bradykinin receptor. The AC50 in assay [6] was above 10 µM; on Estrogen receptor beta it was above 30 µM; on Histamine H2 receptor it was above 10 µM; in assay [7] it was above 30 µM.
`Cc1cnc(Nc2ccc(OCCN3CCCC3)cc2)nc1Nc1cccc(S(=O)(=O)NC(C)(C)C)c1` [FEDRATINIB] gave an AC50 in [1] above 10 µM.
In assay [1], `N=C(N)NC(=O)Cc1c(Cl)cccc1Cl` [GUANFACINE] showed an AC50 of 11.5 µM.
On to `CC1Cc2ccccc2N1NC(=O)c1ccc(Cl)c(S(N)(=O)=O)c1` (centres undefined) [INDAPAMIDE], for which the AC50 in assay [1] and in assay [6] was above 10 µM each time.
As to `CCN(CC)CC(=O)Nc1c(C)cccc1C` [LIDOCAINE], the AC50 (in assay [2]; in assay [3]; in assay [4]; on B1 bradykinin receptor; on Estrogen receptor beta; in [7]) was above 30 µM throughout.
Take `Nc1cc(N2CCCCC2)nc(N)[n+]1[O-]` [MINOXIDIL]: the AC50 in assay [1] was above 10 µM.
In the case of `CC1NCCOC1c1ccccc1` (centres undefined) [PHENMETRAZINE], the AC50 was above 10 µM in assay [1]; above 30 µM in assay [2]; above 30 µM in assay [3]; above 30 µM in assay [4]; above 30 µM in assay [5]; above 30 µM at B1 bradykinin receptor. Moreover, the AC50 (on Estrogen receptor beta; in [7]) was above 30 µM throughout.
Turning to `CC(C)(N)Cc1ccccc1` [PHENTERMINE], the AC50 in assay [1] was above 10 µM; in assay [2], above 30 µM; in [3], above 30 µM; in assay [4] it was above 30 µM; in [5], above 30 µM; on B1 bradykinin receptor, above 30 µM. The AC50 (at Estrogen receptor beta; in assay [7]) was above 30 µM throughout.
On to `CCN(C(C)=O)c1cccc(-c2ccnc3c(C#N)cnn23)c1` [ZALEPLON], for which the AC50 in assay [1] was above 10 µM.
The compound TEPRENONE returned an AC50 in [1] above 10 µM.
